Assay in all cases: Bliss interaction score (quartile over a dose matrix) (fitness difference); higher = more antagonism (negative = synergy)
The subject of one assay is B. subtilis 168. In short, it runs like this:
(§1)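 Fitness was defined as normalised growth: OD595 at the start of stationary phase divided by the plate's robust no-drug mean and capped at 1. Single-drug fitness was inferred from combination measurements. The Bliss score is observed fitness minus the product of the single-drug values, summarised by quartiles across technical, biological and donor/recipient replicates.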

A further assay relates to S. aureus DSM 20231. The method, boiled down:
as §1

The subject of a further assay is S. aureus Newman. The method, boiled down: as §1
In another assay the test system is S. pneumoniae D39V. The method, boiled down:
as §1

Each structure is given as a SMILES string.

For 20 compounds, Bliss interaction score results are on record in the supplement of paper PMC10627819.
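Also: first quartile when negative (synergy) and third quartile when positive (antagonism).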

With `CC(=O)Oc1ccccc1C(=O)O` [Acetylsalicylicacid] + CO[C@H]1/C=C/O[C@@]2(C)Oc3c(C)c(O)c4c(O)c(c(/C=N/N5CCN(C)CC5)c(O)c4c3C2=O)NC(=O)/C(C)=C\C=C\[C@H](C)[C@H](O)[C@@H](C)[C@@H](O)[C@@H](C)[C@H](OC(C)=O)[C@@H]1C [Rifampicin], the Bliss interaction score in the assay with B. subtilis 168 was 0.131; in the assay on S. aureus DSM 20231, 0.0617; with S. aureus Newman it was 0.036; in the assay on S. pneumoniae D39V it was 0.0476.
On the same counts, the results for `CC(=O)Oc1ccccc1C(=O)O` [Acetylsalicylicacid] + COc1c(N2C[C@@H]3CCCN[C@@H]3C2)c(F)cc2c(=O)c(C(=O)O)cn(C3CC3)c12 [Moxifloxacin] are -0.0213, 0.114, 0.114 and 0.0628.
Regarding `CC(=O)Oc1ccccc1C(=O)O` [Acetylsalicylicacid] + COc1cc(Cc2cnc(N)nc2N)cc(OC)c1OC [Trimethoprim], the Bliss interaction score in the assay on B. subtilis 168 is 0.123; in the assay with S. aureus DSM 20231 it was -0.0672; in the assay on S. aureus Newman, 0.0981; with S. pneumoniae D39V it was -0.163.
As for `CC(=O)Oc1ccccc1C(=O)O` [Acetylsalicylicacid] + COc1ccc(C[C@H](N)C(=O)N[C@H]2[C@@H](O)[C@H](n3cnc4c(N(C)C)ncnc43)O[C@@H]2CO)cc1 [Puromycin], the Bliss interaction score in the assay on B. subtilis 168 is 0.0812; in the assay with S. aureus DSM 20231, 0.0722; in the assay with S. aureus Newman, -0.0494; in the assay on S. pneumoniae D39V, 0.149.
The corresponding values for `CC(=O)Oc1ccccc1C(=O)O` [Acetylsalicylicacid] + COc1cccc2c1C(=O)c1c(O)c3c(c(O)c1C2=O)C[C@@](O)(C(=O)CO)C[C@@H]3O[C@H]1C[C@H](N)[C@H](O)[C@H](C)O1 [Doxorubicin] are 0.225, 0.0666, 0.0561 and 0.0551.
The corresponding values for `CC(=O)Oc1ccccc1C(=O)O` [Acetylsalicylicacid] + C[C@@H]1O[C@@H]1P(=O)(O)O [Fosfomycin] are -0.291, 0.0721, -0.0772 and 0.119.
On the same counts, the results for `CC(=O)Oc1ccccc1C(=O)O` [Acetylsalicylicacid] + C[C@@H](O)[C@H]1C(=O)N2C(C(=O)O)=C(SCCNC=N)C[C@H]12 [Imipenem] are -0.34, 0.0498, 0.0337 and 0.0958.
As for `CC(=O)Oc1ccccc1C(=O)O` [Acetylsalicylicacid] + C[C@H]1COc2c(N3CCN(C)CC3)c(F)cc3c(=O)c(C(=O)O)cn1c23 [Levofloxacin], the Bliss interaction score in the assay on B. subtilis 168 was 0.12; in the assay with S. aureus DSM 20231 it was 0.0854; in the assay on S. aureus Newman, 0.12; in the assay with S. pneumoniae D39V, 0.142.
With `CC(=O)Oc1ccccc1C(=O)O` [Acetylsalicylicacid] + C[C@H]1c2cccc(O)c2C(=O)C2=C(O)[C@]3(O)C(=O)C(C(N)=O)=C(O)[C@@H](N(C)C)[C@@H]3[C@@H](O)[C@@H]21 [Doxycycline], the Bliss interaction score in the assay with B. subtilis 168 was -0.164; with S. aureus DSM 20231, -0.0455; in the assay on S. aureus Newman, 0.0416; with S. pneumoniae D39V, 0.1.
Consider `CC(=O)Oc1ccccc1C(=O)O` [Acetylsalicylicacid] + C[n+]1ccc(-c2cc[n+](C)cc2)cc1 [Paraquat], for which the Bliss interaction score is 0.067 in the assay on B. subtilis 168, 0.067 in the assay on S. aureus DSM 20231, 0.0558 with S. aureus Newman and -0.0664 with S. pneumoniae D39V.
Regarding `CC(=O)Oc1ccccc1C(=O)O` [Acetylsalicylicacid] + Cc1cc(NS(=O)(=O)c2ccc(N)cc2)no1 [Sulfamethoxazol], the Bliss interaction score in the assay with B. subtilis 168 is 0.0808; in the assay on S. aureus DSM 20231 it was -0.0892; in the assay on S. aureus Newman, -0.0624; in the assay with S. pneumoniae D39V, -0.0493.
The corresponding values for `CC(=O)Oc1ccccc1C(=O)O` [Acetylsalicylicacid] + Cc1ncc([N+](=O)[O-])n1CCO [Metronidazole] are 0.203, 0.0605, -0.0652 and 0.056.
Take `CC(=O)Oc1ccccc1C(=O)O` [Acetylsalicylicacid] + Cc1onc(-c2ccccc2)c1C(=O)N[C@@H]1C(=O)N2[C@@H]1SC(C)(C)[C@@H]2C(=O)O [Oxacillin]: the Bliss interaction score came to 0.0506 in the assay on B. subtilis 168, 0.113 in the assay on S. aureus DSM 20231, 0.0916 in the assay on S. aureus Newman and 0.0623 with S. pneumoniae D39V.
With `CC(=O)Oc1ccccc1C(=O)O` [Acetylsalicylicacid] + Clc1ccc(COC(Cn2ccnc2)c2ccc(Cl)cc2Cl)c(Cl)c1 [Miconazole], the Bliss interaction score is 0.0955 in the assay on B. subtilis 168, 0.0658 in the assay with S. aureus DSM 20231, 0.0722 in the assay with S. aureus Newman and -0.0711 in the assay with S. pneumoniae D39V.
On the same counts, the results for `CC(=O)Oc1ccccc1C(=O)O` [Acetylsalicylicacid] + Cn1nnc(-c2ccc(-c3ccc(N4C[C@H](CO)OC4=O)cc3F)cn2)n1 [Tedizolid] are -0.184, -0.124, 0.0641 and 0.0802.
On the same counts, the results for `CC(=O)Oc1ccccc1C(=O)O` [Acetylsalicylicacid] + N[C@@H]1CONC1=O [CycloserineD] are 0.221, 0.0689, -0.115 and 0.146.
The corresponding values for `CC(=O)Oc1ccccc1C(=O)O` [Acetylsalicylicacid] + O=C1CN(/N=C/c2ccc([N+](=O)[O-])o2)C(=O)N1 [Nitrofurantoin] are -0.202, -0.0978, -0.0905 and 0.0904.
In the case of `CC(=O)Oc1ccccc1C(=O)O` [Acetylsalicylicacid] + O=C(N[C@H](CO)[C@H](O)c1ccc([N+](=O)[O-])cc1)C(Cl)Cl [Chloramphenicol], the Bliss interaction score was 0.0772 with B. subtilis 168, -0.0904 in the assay on S. aureus DSM 20231, 0.0794 with S. aureus Newman and 0.115 with S. pneumoniae D39V.
As for `CC(=O)Oc1ccccc1C(=O)O` [Acetylsalicylicacid] + O=C(O)[C@H]1/C(=C/CO)O[C@@H]2CC(=O)N21 [Clavulanic], the Bliss interaction score in the assay on B. subtilis 168 was 0.0831; with S. aureus DSM 20231, -0.553; with S. aureus Newman, 0.0986; with S. pneumoniae D39V, 0.0345.
The corresponding values for `CC(=O)Oc1ccccc1C(=O)O` [Acetylsalicylicacid] + O=C(O)c1cn(C2CC2)c2cc(N3CCNCC3)c(F)cc2c1=O [Ciprofloxacin] are 0.146, 0.142, 0.158 and 0.144.
